The results in this text go back to patent US10683307B2, “Compounds for use in antibacterial applications” (GLAXOSMITHKLINE INTELLECTUAL PROPERTY DEVELOPMENT LIMITED, priority 2015, dated 2020).

Each structure is given as a SMILES string. Where a name gives a salt, the structure may show the parent alone. Read-outs that look alike come from different tables or passages of the source.

What is called MIC is the lowest concentration found to suppress growth.

Common to all, as to assay type: cell-based
The test system of test [1] is Streptococcus pneumonia. The settings on record: Streptococcus pneumoniae.
Test [2] deals with Burkholderia cepacia. On the set-up: unit not given beside the values. The settings on record: unit not given.
Test [3] relates to Yersinia pestis. Put plainly: microbe, parasite or virus in culture.
Test [4] relates to Bacillus anthracis. Put plainly: microbe, parasite or virus in culture.
The test system of test [5] is Francisella tularensis. As to the kind of experiment: microbe, parasite or virus in culture.
The subject of test [6] is Streptococcus pyogenes.
The test system of test [7] is Staphylococcus aureus.
The subject of test [8] is Mycobacterium tuberculosis H37Rv. As to the kind of experiment: Mycobacterium Tuberculosis H37Rv Inhibition Assay. Conditions: H37Rv strain, Middlebrook 7H9+ADC, resazurin fluorescence; for MIC: H37RV.
The subject of test [9] is Bacteroides ovatus.
For test [10], the system named is Burkholderia mallei. The settings on record: Table 3 column D4 = Burkholderia mallei.
The test system of test [11] is Bacteroides fragilis.
In test [12] the test system is citrobacter spp. Conditions: Table 1 column L = citrobacter spp; unit inferred.
Test [13] has as its system Serratia marcescens. The settings on record: Table 1 column N = Serratia marcescens; unit inferred.
The subject of test [14] is Burkholderia pseudomallei. The settings on record: Table 3 column E4 = Burkholderia pseudomallei.
For test [15], the system named is Bacteroides caccae.
The test system of test [16] is Bacteroides thetaiotamicron.
The subject of test [17] is Streptococcus agalactiae.
Test [18] has as its system Providencia rettgeri. Conditions: Table 1 column O = Providencia rettgeri; unit inferred.
The subject of test [19] is E. faecium. Conditions: G1 = E. faecium.
Test [20] has as its system Moraxella catarrhalis. The settings on record: unit inferred.
Test [21] concerns Enterococcus faecalis.
Test [22] relates to Legionella pneumophila. Conditions: Table 1 column G = Legionella pneumophila; unit inferred.

Turning to `COc1cnc2ccc(F)c(CN[C@H]3CC[C@H](NCc4cnc5c(n4)NC(=O)CO5)C[C@H]3O)c2n1.Cl` [Compound W, 6-({[(1S,3R,4S)-4-{[(6-fluoro-3-methoxyquinoxalin-5-yl)methyl]amino}-3-hydroxycyclohexyl]amino}methyl)-2H,3H,4H-pyrazino[2,3-b][1,4]oxazin-3-one], the MIC90 in test [1] is at most 0.5 µg/mL; in test [2], at most 16; in [3] (Yersinia pestis), at most 0.125 µg/mL; in test [4] (Bacillus anthracis), at most 0.5 µg/mL; in [5] (Francisella tularensis), at most 0.125 µg/mL; in test [6], at most 0.125 µg/mL. Further, the MIC90 in test [7] is at most 0.125 µg/mL.

`COc1cnc2ccc(F)c(CN[C@H]3CC[C@H](NCc4cnc5c(n4)NC(=O)CO5)C[C@H]3O)c2n1.Cl` [Compound W, HCl salt, 6-(((1S,3R,4S)-4-((7-Fluoro-2-methoxyquinoxalin-8-yl)methylamino)-3-hydroxycyclohexylamino)methyl)-2H-pyrazino[2,3-b][1,4]oxazin-3(4H)-one Hydrochloride]: in test [8], the MIC was at most 0.02 µg/mL.

Regarding `COc1ccc2ccc(=O)n(CCN3C[C@H](CNCc4cnc5c(n4)NC(=O)CS5)[C@H](O)C3)c2n1` [Compound Y, HCl salt, 1-{2-[(3S,4S)-3-hydroxy-4-{[({3-oxo-2H,3H,4H-pyrazino[2,3-b][1,4]thiazin-6-yl}methyl)amino]methyl}pyrrolidin-1-yl]ethyl}-7-methoxy-1,2-dihydro-1,8-naphthyridin-2-one], the MIC in test [8] was at most 0.02 µg/mL.

As to `Cn1cc(C(=O)O)c(=O)c2c(CC[C@H]3CC[C@H](NCc4cnc5c(n4)NC(=O)CS5)CC3)c(F)cc(F)c21` [Compound Z, TFA salt, 6,8-difluoro-1-methyl-4-oxo-5-(2-((1r,4s)-4-(((3-oxo-3,4-dihydro-2H-pyrazino [2,3-b][1,4]thiazin-6-yl)methyl)amino)cyclohexyl)ethyl)-1,4-dihydroquinoline-3-carboxylic acid], in test [8], the MIC was at most 0.1 µg/mL.

In the case of `COc1cnc2ccc(F)c(CNC3CCC(NCc4cnc5c(n4)NC(=O)CO5)CC3)c2n1.Cl` [Formula (V) HCl salt, 6-((((1R,4R)-4-(((6-fluoro-3-methoxyquinoxalin-5-yl)methyl)amino)cyclohexyl)amino)methyl)-2H-pyrazino[2,3-b][1,4]oxazin-3(4H)-one, Hydrochloride], the MIC was at most 2 µg/mL in test [9], at most 0.5 µg/mL in test [11], at most 4 µg/mL in test [15] and at most 1 µg/mL in [16]. Moreover, the MIC90 was at most 4 µg/mL in test [10]; at most 0.25 µg/mL in [12]; at most 4 µg/mL in test [13]; at most 8 in test [2]; at most 0.12 µg/mL in [3] (Table 3 column A4 = Yersinia pestis); at most 0.25 µg/mL in test [4] (Table 3 column B4 = Bacillus anthracis). For the same compound, the MIC90 is at most 4 µg/mL in [14], at most 2 µg/mL in test [17], at most 0.5 µg/mL in test [5] (Table 3 column C4 = Francisella tularensis) and at most 0.5 µg/mL in test [18]. Moreover, the “H37Rv MIC” value in test [8] is at most 0.3 µg/mL.

Turning to `COc1cnc2ccc(F)c(CN[C@H]3CC[C@H](NCc4cnc5c(n4)NC(=O)CO5)CC3)c2n1` [Formula (V) free base, 6-((((1R,4R)-4-(((6-fluoro-3-methoxyquinoxalin-5-yl)methyl)amino)cyclohexyl)amino)methyl)-2H-pyrazino[2,3-b][1,4]oxazin-3(4H)-one], the MIC in [8] is at most 0.02 µg/mL. Also, the MIC90 in test [19] (Enterococcus faecium, read-out: MIC90) is at most 0.5 µg/mL; in test [20], under 0.016 µg/mL; in test [21] (read-out: MIC90), at most 0.5 µg/mL.

On to `COc1cnc2ccc(F)c(CN[C@@H]3CC[C@@H](NCc4cnc5c(n4)NC(=O)CO5)C[C@@H]3O)c2n1.Cl` [Formula (VI) HCl salt, 6-((((1R,3S,4R)-4-(((6-fluoro-3-methoxyquinoxalin-5-yl)methyl)amino)-3-hydroxycyclohexyl)amino)methyl)-2H-pyrazino[2,3-b][1,4]oxazin-3(4H)-one Hydrochloride], for which the MIC in test [8] was at most 0.02 µg/mL. In addition, the MIC90 in test [1] is at most 0.25 µg/mL; in test [2] it was at most 8; in [3] (Yersinia pestis), at most 0.125 µg/mL; in test [4] (Bacillus anthracis), at most 0.25 µg/mL; in [5] (Francisella tularensis) it was at most 0.063 µg/mL; in [6], at most 0.063 µg/mL. Also, the MIC90 in [7] is at most 0.125 µg/mL.

In the case of `COc1ccc2ncc(=O)n(CCN3CC[C@@H](CNCc4ncc5c(n4)NC(=O)CO5)C3)c2n1` [Formula (VII) HCl salt, 2-({[((3S)-1-{2-[6-(methyloxy)-3-oxopyrido[2,3-b]pyrazin-4(3H)-yl]ethyl}-3-pyrrolidinyl)methyl]amino}methyl)-1H-pyrimido[5,4-b][1,4]oxazin-7(6H)-one], in test [8], the MIC was at most 0.3 µg/mL. The MIC90 was at most 0.5 µg/mL in test [12]; at most 2 µg/mL in test [13]; at most 16 in test [2]; at most 0.5 µg/mL in test [19]; under 0.016 µg/mL in test [20]; at most 0.12 µg/mL in test [3] (Yersinia pestis). Moreover, the MIC90 in test [21] (read-out: MIC90) is at most 0.5 µg/mL; in test [4] (Bacillus anthracis) it was at most 0.12 µg/mL; in test [22] it was at most 0.06 µg/mL; in test [5] (Francisella tularensis), at most 0.03 µg/mL; in [18], at most 1 µg/mL.

As to `COc1ccc2ncc(=O)n(CCN3CC[C@@H](CNCc4ncc5c(n4)NC(=O)CO5)C3)c2n1` [Formula (VII) free base, 2-({[((3S)-1-{2-[6-(methyloxy)-3-oxopyrido[2,3-b]pyrazin-4(3H)-yl]ethyl}-3-pyrrolidinyl)methyl]amino}methyl)-1H-pyrimido[5,4-b][1,4]oxazin-7(6H)-one], the “H37Rv MIC” value in test [8] was at most 0.16 µg/mL. The MIC90 is at most 8 in test [2], at most 0.125 µg/mL in test [19], under 0.016 µg/mL in test [20] and at most 0.25 µg/mL in test [21].
